Measurements: patent US20100119528A1, “Transport of Biologically Active Molecules into a Cell, Mitochondrion, or Nucleus” (priority 2008, published 2010)

Tested on: mitochondria
Assay: Peptide-mediated delivery of cargo into cells/mitochondria (fluorescence microscopy)
Assay type: cell-based
Method: Cells, indicated above, were grown in 8-well culture slides. Peptide/protein complexes were formed in a volume of 100 μl in OptiMEM and incubated for 30 min at 37° C. Approximately 10,000 Cells grown to 75% confluence were overlaid with these preformed complexes. After 30 min of incubation at 37° C., 500 μl of fresh DMEM supplemented with 10% FBS was added to the cells and incubated for an additional 30 min. Cells were then washed with PBS followed by fixing with 4% paraformaldehyde in PBS. Cells were then mounted with flourescent-FragEL Mounting media (Calbiochem) containing DAPI nuclear stain before microscopic analysis. See, e.g., FIGS. 1, 2, 3, and 11.

## AAVALLPAVLLALLAPMSVLTPLLLRGLTGSARRLPVPRAKIHSL (AAVALLPAVLLALLAPMSVLTPLLLRGLTGSARRLPVPRAKIHSL) [SEQ ID NO:19]
FIG. 1, 10 picomol Alexa-tagged IgG, SEQ ID NO:19 from 0 to 2000 pm, orange = red plus green stain
  delivery of Alexa-IgG into mitochondria: Alexa-IgG complex has entered the mitochondria
FIG. 2, green = mitochondria stained by FITC complex, blue = DAPI nucleus
  delivery of FITC-tagged oligonucleotide: demonstrates delivery of FITC-tagged oligonucleotide
FIG. 3, DNA stain, small blue dots = mitochondria
  delivery of double-stranded circular plasmid (~5.5 kb) into the mitochondria: delivery of a double-stranded circular plasmid (˜5.5 kb) into the mitochondria
